Test results taken from ChEMBL document CHEMBL3046126, “Synthesis and Herbicidal Activity of New Oxazolidinedione Derivatives” (J Pestic Sci, 1999).

What was measured:
Lindernia procumbens [1] = test: Pre-emergence herbicidal activity against Lindernia procumbens assessed as phytotoxic weed control visual ratings at 1.25 kg ai/ha measured after 14 days post treatment under flooded conditions; type: functional
Pontederia vaginalis [2] = test: Pre-emergence herbicidal activity against Monochoria vaginalis assessed as phytotoxic weed control visual ratings at 1.25 kg ai/ha measured after 14 days post treatment under flooded conditions; type: functional
Echinochloa oryzicola [3] = test: Pre-emergence herbicidal activity against Echinochloa oryzicola assessed as phytotoxic weed control visual ratings at 1.25 kg ai/ha measured after 14 days post treatment under flooded conditions; type: functional
Rotala indica [4] = test: Pre-emergence herbicidal activity against Rotala indica assessed as phytotoxic weed control visual ratings at 1.25 kg ai/ha measured after 14 days post treatment under flooded conditions; type: functional
Elatine triandra [5] = test: Pre-emergence herbicidal activity against Elatine triandra assessed as phytotoxic weed control visual ratings at 1.25 kg ai/ha measured after 14 days post treatment under flooded conditions; type: functional
Cyperus difformis [6] = test: Pre-emergence herbicidal activity against Cyperus difformis assessed as phytotoxic weed control visual ratings at 1.25 kg ai/ha measured after 14 days post treatment under flooded conditions; type: functional
[7] = system: Schoenoplectiella juncoides; test: Pre-emergence herbicidal activity against Schoenoplectiella juncoides assessed as phytotoxic weed control visual ratings at 1.25 kg ai/ha measured after 14 days post treatment under flooded conditions; type: functional
Oryza sativa [8] = test: Pre-emergence phytotoxicity against Oryza sativa cv. Koshihikari (rice) assessed as phytotoxic crop injury visual ratings at 1.25 kg ai/ha measured after 14 days post treatment under flooded conditions; type: organism-based; conditions: in vivo, other, 336 h
Lindernia procumbens [9] = test: Pre-emergence herbicidal activity against Lindernia procumbens assessed as phytotoxic weed control visual ratings at 25 g ai/ha measured after 14 days post treatment under flooded conditions; type: functional
Amaranthus viridis = test: Pre-emergence herbicidal activity against Amaranthus viridis assessed as phytotoxic weed control visual ratings at 500 g ai/ha measured after 14 days post treatment under upland field conditions; type: functional
Elatine triandra [10] = test: Pre-emergence herbicidal activity against Elatine triandra assessed as phytotoxic weed control visual ratings at 25 g ai/ha measured after 14 days post treatment under flooded conditions; type: functional
Oryza sativa [11] = test: Pre-emergence phytotoxicity against Oryza sativa cv. Koshihikari (rice) assessed as phytotoxic crop injury visual ratings at 25 g ai/ha measured after 14 days post treatment under flooded conditions; type: organism-based; conditions: in vivo, other, 336 h
[12] = system: Schoenoplectiella juncoides; test: Pre-emergence herbicidal activity against Schoenoplectiella juncoides assessed as phytotoxic weed control visual ratings at 25 g ai/ha measured after 14 days post treatment under flooded conditions; type: functional
Digitaria ciliaris = test: Pre-emergence herbicidal activity against Digitaria ciliaris assessed as phytotoxic weed control visual ratings at 500 g ai/ha measured after 14 days post treatment under upland field conditions; type: functional
Zea mays = test: Pre-emergence phytotoxicity against Zea mays (maize) assessed as phytotoxic crop injury visual ratings at 500 g ai/ha measured after 14 days post treatment under upland field conditions; type: organism-based; conditions: in vivo, other, 336 h
Cyperus difformis [13] = test: Pre-emergence herbicidal activity against Cyperus difformis assessed as phytotoxic weed control visual ratings at 25 g ai/ha measured after 14 days post treatment under flooded conditions; type: functional
Echinochloa crus-galli = test: Pre-emergence herbicidal activity against Echinochloa crus-galli (barnyard grass) assessed as phytotoxic weed control visual ratings at 500 g ai/ha measured after 14 days post treatment under upland field conditions; type: functional
Echinochloa oryzicola [14] = test: Pre-emergence herbicidal activity against Echinochloa oryzicola assessed as phytotoxic weed control visual ratings at 25 g ai/ha measured after 14 days post treatment under flooded conditions; type: functional
Pontederia vaginalis [15] = test: Pre-emergence herbicidal activity against Monochoria vaginalis assessed as phytotoxic weed control visual ratings at 25 g ai/ha measured after 14 days post treatment under flooded conditions; type: functional
Rotala indica [16] = test: Pre-emergence herbicidal activity against Rotala indica assessed as phytotoxic weed control visual ratings at 25 g ai/ha measured after 14 days post treatment under flooded conditions; type: functional
Chenopodium album = test: Pre-emergence herbicidal activity against Chenopodium album assessed as phytotoxic weed control visual ratings at 500 g ai/ha measured after 14 days post treatment under upland field conditions; type: functional
Rotala indica [17] = test: Pre-emergence herbicidal activity against Rotala indica assessed as phytotoxic weed control visual ratings at 2.5 kg ai/ha measured after 14 days post treatment under flooded conditions; type: functional
Oryza sativa [18] = test: Pre-emergence phytotoxicity against Oryza sativa cv. Koshihikari (rice) assessed as phytotoxic crop injury visual ratings at 2.5 kg ai/ha measured after 14 days post treatment under flooded conditions; type: organism-based; conditions: in vivo, other, 336 h
Pontederia vaginalis [19] = test: Pre-emergence herbicidal activity against Monochoria vaginalis assessed as phytotoxic weed control visual ratings at 2.5 kg ai/ha measured after 14 days post treatment under flooded conditions; type: functional
Elatine triandra [20] = test: Pre-emergence herbicidal activity against Elatine triandra assessed as phytotoxic weed control visual ratings at 2.5 kg ai/ha measured after 14 days post treatment under flooded conditions; type: functional
Cyperus difformis [21] = test: Pre-emergence herbicidal activity against Cyperus difformis assessed as phytotoxic weed control visual ratings at 2.5 kg ai/ha measured after 14 days post treatment under flooded conditions; type: functional
[22] = system: Schoenoplectiella juncoides; test: Pre-emergence herbicidal activity against Schoenoplectiella juncoides assessed as phytotoxic weed control visual ratings at 2.5 kg ai/ha measured after 14 days post treatment under flooded conditions; type: functional
Echinochloa oryzicola [23] = test: Pre-emergence herbicidal activity against Echinochloa oryzicola assessed as phytotoxic weed control visual ratings at 2.5 kg ai/ha measured after 14 days post treatment under flooded conditions; type: functional
Lindernia procumbens [24] = test: Pre-emergence herbicidal activity against Lindernia procumbens assessed as phytotoxic weed control visual ratings at 2.5 kg ai/ha measured after 14 days post treatment under flooded conditions; type: functional
Oryza sativa [25] = test: Pre-emergence phytotoxicity against Oryza sativa cv. Koshihikari (rice) assessed as phytotoxic crop injury visual ratings measured after 14 days post treatment; type: organism-based; conditions: in vivo, 336 h
[26] = Selectivity index, ratio of ED10 for Oryza sativa to ED90 for Echinochloa oryzicola by pre-emergence exposure method
Oryza sativa [27] = test: Post-emergence phytotoxicity against Oryza sativa cv. Koshihikari (rice) assessed as phytotoxic crop injury visual ratings measured after 14 days post treatment; type: organism-based; conditions: in vivo, 336 h
[28] = Selectivity index, ratio of ED10 for Oryza sativa to ED90 for Echinochloa oryzicola by post-emergence exposure method

SMILES | Phytotoxicity (Lindernia procumbens [1]) | Phytotoxicity (Pontederia vaginalis [2]) | Phytotoxicity (Echinochloa oryzicola [3]) | Phytotoxicity (Rotala indica [4]) | Phytotoxicity (Elatine triandra [5]) | Phytotoxicity (Cyperus difformis [6]) | Phytotoxicity [7] | Phytotoxicity (Oryza sativa [8]) | Phytotoxicity (Oryza sativa [11]) | Phytotoxicity (Zea mays) | Phytotoxicity (Rotala indica [17]) | Phytotoxicity (Oryza sativa [18]) | Phytotoxicity (Pontederia vaginalis [19]) | Phytotoxicity (Elatine triandra [20]) | Phytotoxicity (Cyperus difformis [21]) | Phytotoxicity [22] | Phytotoxicity (Echinochloa oryzicola [23]) | Phytotoxicity (Lindernia procumbens [24]) | other results
CCCC/C(C)=C1/OC(=O)N(c2ccc(Cl)cc2)C1=O | 100% | 100% | 40% | 100% | 100% | 100% | 100% | 10% | – | – | – | – | – | – | – | – | – | – | –
CCC(CC)Oc1cc(N2C(=O)OC(=C(C)C)C2=O)c(F)cc1Cl | – | – | – | – | – | – | – | – | 0% | 0% | – | – | – | – | – | – | – | – | Phytotoxicity (Lindernia procumbens [9]): 100%; Phytotoxicity (Amaranthus viridis): 90%; Phytotoxicity (Elatine triandra [10]): 100%; Phytotoxicity [12]: 90%; Phytotoxicity (Digitaria ciliaris): 60%; Phytotoxicity (Cyperus difformis [13]): 100%; Phytotoxicity (Echinochloa crus-galli): 30%; Phytotoxicity (Echinochloa oryzicola [14]): 60%; Phytotoxicity (Pontederia vaginalis [15]): 100%; Phytotoxicity (Rotala indica [16]): 100%; Phytotoxicity (Chenopodium album): 90%
CC(C)=C1OC(=O)N(c2ccccc2Cl)C1=O | – | – | – | – | – | – | – | – | – | – | 0% | 0% | 0% | 0% | 0% | 0% | 0% | 0% | –
CC(C)=C1OC(=O)N(c2ccc(F)cc2)C1=O | 40% | 40% | 10% | 40% | 40% | 100% | 0% | 0% | – | – | – | – | – | – | – | – | – | – | –
C#CC(C)Oc1cc(N2C(=O)OC(=C(C)C)C2=O)c(F)cc1Cl (stereo not drawn) | – | – | – | – | – | – | – | – | 20% | 10% | – | – | – | – | – | – | – | – | ED10 (Oryza sativa [25]): 6.25 gAi/ha; Selectivity Index [26]: 4; ED10 (Oryza sativa [27]): 12.5 gAi/ha; Selectivity Index [28]: 2
CC(C)=C1OC(=O)N(c2cccc(Cl)c2)C1=O | – | – | – | – | – | – | – | – | – | – | 30% | 0% | 30% | 30% | 30% | 10% | 0% | 30% | –
CC(C)=C1OC(=O)N(c2cc(Cl)cc(Cl)c2)C1=O | – | – | – | – | – | – | – | – | – | – | 50% | 0% | 50% | 50% | 30% | 30% | 0% | 50% | –
CC/C(C)=C1/OC(=O)N(c2ccc(F)cc2)C1=O | 100% | 100% | 10% | 100% | 100% | 100% | 60% | 0% | – | – | – | – | – | – | – | – | – | – | –
C=CC1(C)OC(=O)N(c2cc(Cl)cc(Cl)c2)C1=O (stereo not drawn) [VINCLOZOLIN] | – | – | – | – | – | – | – | – | – | – | 50% | 0% | 50% | 50% | 50% | 30% | 90% | 50% | –
CCCCCCOc1cc(N2C(=O)OC(=C(C)C)C2=O)c(F)cc1Cl | – | – | – | – | – | – | – | – | 0% | 0% | – | – | – | – | – | – | – | – | Phytotoxicity (Lindernia procumbens [9]): 70%; Phytotoxicity (Amaranthus viridis): 100%; Phytotoxicity (Elatine triandra [10]): 70%; Phytotoxicity [12]: 60%; Phytotoxicity (Digitaria ciliaris): 10%; Phytotoxicity (Cyperus difformis [13]): 80%; Phytotoxicity (Echinochloa crus-galli): 10%; Phytotoxicity (Echinochloa oryzicola [14]): 10%; Phytotoxicity (Pontederia vaginalis [15]): 90%; Phytotoxicity (Rotala indica [16]): 70%; Phytotoxicity (Chenopodium album): 50%
